The text below walks through data of US10308632B2, “Antifungal compounds and processes for making” (VPS-3, Inc., priority 2015, dated 2019).

Holding throughout (assay type): physicochemical
Series [1] in a line: Gravimetric/dynamic vapor sorption (GVS/DVS) moisture sorption isotherm. Conditions: for GVS hysteresis: 0-90% RH range; for moisture uptake by GVS: at 90% RH; for GVS water uptake: over 0-90% RH range, 25° C.; for XRPD post GVS: sample re-analysed by XRPD after isotherm. As to the method: Gravimetric Vapor Sorption (GVS) isotherms were obtained using a SMS DVS Intrinsic moisture sorption analyser, controlled by DVS Intrinsic Control software v1.0.1.2 (or v 1.0.1.3). The sample temperature was maintained at 25° C. by the instrument controls. The humidity was controlled by mixing streams of dry and wet nitrogen, with a total flow rate of 200 mL/min The relative humidity was measured by a calibrated Rotronic probe (dynamic range of 1.0-100% RH), located near the sample. The weight change, (mass relaxation) of the sample as a function of % RH was constantly monitored by the microbalance (accuracy ±0.005 mg). Typically. 10-15 mg of sample was placed in a tared mesh stainless steel basket under ambient conditions. The sample was loaded and unloaded at 40% RH and 25° C. (typical room conditions). A moisture sorption isotherm was performed as outlined below (2 scans giving 1 complete cycle). The standard isotherm was performed at 25° C. at 10% RH intervals over a 0-90% RH range. Data analysis was undertaken in Microsoft Excel using DVS Analysis Suite v6.2 (or 6.1 or 6.0). [table] The sample was recovered after completion of the isotherm and re-analysed by XRPD.

Series [2] is described as follows: XRPD stability after 7 days storage at elevated humidity. The method, then: X-Ray Powder Diffraction patterns were collected on a Bruker AXS C2 GADDS diffractometer using Cu Kα radiation (40 kV, 40 mA), automated XYZ stage, laser video microscope for auto-sample positioning and a HiStar 2-dimensional area detector. X-ray optics consists of a single Göbel multilayer mirror coupled with a pinhole collimator of 0.3 mm. A weekly performance check is carried out using a certified standard NIST 1976 Corundum (flat plate). The beam divergence, i.e. the effective size of the X-ray beam on the sample, was approximately 4 mm. A Θ-Θ continuous scan mode was employed with a sample—detector distance of 20 cm which gives an effective […] of 3.2°-29.7°. Typically the sample would be exposed to the X-ray beam for 120 seconds. The software used for data collection was GADDS for XP/2000 4.1.43 and the data were analysed and presented using Diffrac Plus EVA v13.0.0.2 or v15.0.0.0. Samples run under ambient conditions were prepared as flat plate specimens using powder as received without grinding. Approximately 1-2 mg of the sample was lightly pressed on a glass slide to obtain a flat surface. Samples run under non-ambient conditions were mounted on a silicon wafer with heat-conducting compound. The sample was then heated to the appropriate temperature at 30° C./min and subsequently held isothermally for 1 minute before data collection was initiated. X-Ray Powder Diffraction patterns were also collected on a Bruker D8 diffractometer using Cu Kα radiation (40 kV, 40 mA), θ-2θ goniometer, and divergence of V4 and receiving slits, a Ge monochromator and a Lynxeye detector. The instrument is performance checked using a certified Corundum standard (NIST 1976). The software used for data collection was Diffrac Plus XRD Commander v2.6.1 and the data were analysed and presented using Diffrac Plus EVA v15.0.0.0. Samples were run under ambient conditions as flat plate specimens using powder as received. The sample was gently packed into a cavity cut into polished, zero-background (510) silicon wafer. The sample was rotated in its own plane during analysis. The details of the data collection are: Angular range: 2 to 42° 2 θ; Step size: 0.05° 2θ; Collection time: 0.5 s/step.

Series [3] can be described thus: Thermo-gravimetric analysis (TGA), decomposition onset. Conditions: heated at 10° C./min. The method, then:
Thermo-gravimetric analysis (TGA) data were collected on a TA Instruments Discovery TGA, equipped with a 25 position auto-sampler. The instrument was temperature calibrated using certified alumel and nickel. Typically, 3-10 mg of each sample was loaded onto a pre-tared aluminium pan and heated at 10° C./min from ambient temperature to 350° C. A nitrogen purge at 25 mL/min was maintained over the sample. The instrument control and data analysis software was TRIOS v3.2.0.3877.

Series [4] in a line: Competitive slurry experiments of Form 1 and Form 2 (thermodynamic stability). Conditions: temperature range investigated (5° C., 25° C., 50° C.). As to the method: The melt of Form 1 of compound 5 was determined by DSC to be at 129.0° C. with an enthalpy of −46 J/g. A melt endotherm was not determined for Form 2 as it transforms to Form 1 upon heating at different rates. […] These experiments were performed in IPA, ethanol and toluene. To conduct these experiments a solid mixture of Forms 1 and 2 (<18 mg per sample) was suspended in the corresponding saturated solution of compound 5 and stirred at the desired temperature. Saturated solutions of compound 5 were prepared at 50° C. by dissolving 40 mg, 60 mg and 200 mg of sample in 1.4 mL of IPA, 0.8 mL of ethanol and 0.8 mL of toluene, respectively. The slurries were filtered, air-dried and analyzed by XRPD after stirring for up to 10 days at the desired temperature. […] All the experiments except for that performed in IPA at 5° C. gave pure Form 1.

Series [5] can be described thus: Variable temperature XRPD (VT-XRPD), polymorph conversion. Conditions: upon heating. As to the method: X-Ray Powder Diffraction patterns were collected on a Bruker AXS C2 GADDS diffractometer using Cu Kα radiation (40 kV, 40 mA), automated XYZ stage, laser video microscope for auto-sample positioning and a HiStar 2-dimensional area detector. X-ray optics consists of a single Göbel multilayer mirror coupled with a pinhole collimator of 0.3 mm. A weekly performance check is carried out using a certified standard NIST 1976 Corundum (flat plate). The beam divergence, i.e. the effective size of the X-ray beam on the sample, was approximately 4 mm. A Θ-Θ continuous scan mode was employed with a sample—detector distance of 20 cm which gives an effective […] of 3.2°-29.7°. Typically the sample would be exposed to the X-ray beam for 120 seconds. The software used for data collection was GADDS for XP/2000 4.1.43 and the data were analysed and presented using Diffrac Plus EVA v13.0.0.2 or v15.0.0.0. Samples run under ambient conditions were prepared as flat plate specimens using powder as received without grinding. Approximately 1-2 mg of the sample was lightly pressed on a glass slide to obtain a flat surface. Samples run under non-ambient conditions were mounted on a silicon wafer with heat-conducting compound. The sample was then heated to the appropriate temperature at 30° C./min and subsequently held isothermally for 1 minute before data collection was initiated. […]

As for `N#Cc1ccc(COc2ccc(C#Cc3ccc(C(F)(F)[C@](O)(Cn4cnnn4)c4ccc(F)cc4F)nc3)cc2)cc1` [Compound 5 (Anhydrous Form 1)], in series [1], the GVS hysteresis entry is recorded as “(slight hysteresis observed)”, the “moisture uptake by GVS” value is roughly 1.3%, the GVS water uptake result is listed as “ca. 1.3% water uptake over” and the “XRPD post GVS” value was “unchanged”. Further, in series [2] (25° C. & 96% RH), the “XRPD stability post 7 days” value is “Unchanged by XRPD”. The “XRPD stability post 7 days” value in series [2] (40° C. & 75% RH) was “Unchanged by XRPD”. The “stability after 7 days storage at elevated humidity conditions” value (“stability after 7 days storage” below) in series [2] is given as “stable”. In addition, in series [3], the TGA decomposition onset result is “Decomposition onset at ~200 °C”. Moreover, the “thermodynamic stability of the pair Form 1/Form 2” value in series [4] is given as “thermodynamically stable form”.

On to `N#Cc1ccc(COc2ccc(C#Cc3ccc(C(F)(F)[C@](O)(Cn4cnnn4)c4ccc(F)cc4F)nc3)cc2)cc1` [Compound 5 (Anhydrous Form 2)], for which, in series [1], the GVS hysteresis entry was “(no hysteresis observed)”, the “moisture uptake by GVS” value was roughly 0.7%, the GVS water uptake entry is “ca. 0.7% water uptake over” and the “XRPD post GVS” value is “unchanged”. For the same molecule, the “XRPD stability post 7 days” value in series [2] (25° C. & 96% RH) is “Unchanged by XRPD”. In series [2] (40° C. & 75% RH), the “XRPD stability post 7 days” value is recorded as “Unchanged by XRPD”. Also, in series [2], the “stability after 7 days storage” value is “remained stable”. For the same molecule, the TGA decomposition onset entry in series [3] is “Decomposition onset at ~200 °C”. In addition, in series [5], the “VT-XRPD: conversion to Form 1 starts at” value was “at 105 °C”.

Turning to `N#Cc1ccc(COc2ccc(C#Cc3ccc(C(F)(F)[C@](O)(Cn4cnnn4)c4ccc(F)cc4F)nc3)cc2)cc1` [Compound 14], in series [1], the GVS hysteresis entry is given as “(no hysteresis observed)”, the “moisture uptake by GVS” value was roughly 1.6%, the GVS water uptake entry is listed as “ca. 1.6% water uptake over” and the “XRPD post GVS” value is given as “unchanged”. Besides, the “XRPD stability post 7 days” value in series [2] (25° C. & 96% RH) is recorded as “Unchanged by XRPD”. Besides, in series [2] (40° C. & 75% RH), the “XRPD stability post 7 days” value is “Unchanged by XRPD”. Also, the “stability after 7 days storage” value in series [2] was “stable”. Besides, the TGA decomposition onset result in series [3] was “Decomposition onset at ~300 °C”.
